Assay results as given in patent US20110086388A1, “CHAPERONE-ASSISTED PROTEIN EXPRESSION AND METHODS OF USE” (Duke University, priority 2009, published 2011).

Columns and labels:
[1] = tested on: vancomycin-resistant Enterococcus faecium (VRE); settings: cited from earlier work
[2] = tested on: methicillin-resistant Staphylococcus aureus (MRSA); settings: cited from earlier work
[3] = tested on: Actinoplanes ATCC 33076 Ramo16, NAD dependent reductase (native protein, no fusion tag); assay: Ramo16 activity assay (continuous spectrophotometric, decrease in NADH absorbance at 340 nm); type: biochemical; settings: pseudo-substrate acetoacetyl-CoA varied 0 to 5 mM; 250 μM NADH fixed; 10 μM Ramo16; 50 mM HEPES, pH 7.6, 100 mM NaCl; 25° C.
Method: FIG. 8 is a kinetic profile of Ramo16 (10 μM) with varied acetoacetyl-CoA (0 to 5 mM) and fixed NADH (250 μM).
Ramo16, the NAD dependent reductase, was expressed natively in autoinduction media to prevent the formation of insoluble aggregates. Expression in a His6-tagged expression vector led to protein instability and ultimately precipitation.
Cloning and Purification of Ramo16: The ramo16 gene was obtained by PCR amplification from cosmid DNA (OO8CK) from Actinoplanes ATCC 33076 using Herculase Hot Start Polymerase with the following primers: the C-terminal his-tag were Ramo16C-F (5′-GGGAATTCCATATGCGCTTGACCGGCAAGACCCCG-3′), Ramo16C-R (5′-CCCAAGCTTGCGCGTGGTGAATCCGCCGTCGAC-3′, and the N-terminal his-tag were Ramo16N-F (5′-TATACCATGGCTCGCTTGACCGGCAAGAC-3′). and Ramo16N-R (5′-TATAGGATCCTCAGCGCGTGGTGAATCCG-3′). The amplified gene products were cloned into the Zero Blunt Cloning Vector and sequenced. […] Fractions were analyzed by SDS-PAGE and the band corresponding to Ramo16 was excised and the identity of the protein confirmed by Q-TOF. […]
Ramo 16 Activity Assay: Initial rates of Ramo16 were determined by monitoring the decrease in absorbance of NADH at 340 nm at 25° C. The 100 μL reactions were monitored in half-area clear bottom Corning plates using a 96 well plate SpectraMax Molecular Devices spectrophotometer. […]

| Compound | effectiveness against VRE [1] | effectiveness against MRSA [2] | Km [3] [mM] | kcat [3] [s⁻¹] |
| --- | --- | --- | --- | --- |
| ramoplanin A2 | highly effective | highly effective | – | – |
| CC(=O)CC(=O)SCCNC(=O)CCNC(=O)[C@H](O)C(C)(C)COP(=O)(O)OP(=O)(O)OC[C@H]1O[C@@H](n2cnc3c(N)ncnc32)[C@H](O)[C@@H]1OP(=O)(O)O [acetoacetyl-Coenzyme A] | – | – | 2.35 ± 0.39 | 15.7 ± 1.2 |
